# In patent US10947202B2, “Sodium ion channel inhibitors and pharmaceutically acceptable salts and polymorphs thereof and uses thereof” (SHANGHAI HAIYAN PHARMACEUTICAL TECHNOLOGY CO., LTD., priority 2017, dated 2021):
# Key:
# hNav1.7 = hNav1.7 (Homo sapiens, UniProt Q15858); test: Manual patch clamp experiment of hNav1.7 channel (CHO-hNav1.7 stable cell line); format: cell-based
# Description: Patch voltage clamp electrophysiology allows for the direct measurement and quantification of current block of voltage-gated sodium channels (NaV's), and allows the determination of the time and voltage-dependence of block which has been interpreted as differential binding to the resting, open and inactivated states of the sodium channel to reflect the compound's inhibitory or activating effects (Hille, B., Journal of General Physiology (1977), 69: 497-515).
# Representative compounds of the present disclosure were performed using a manual patch clamp experiment and the purpose of this study was to test the effect of compounds on this ion channel current on a stable cell line transfected with a specific ion channel using a manual patch clamp method, the used stable cell lines CHO-hNav1.7 and HEK-hNav1.5 were from Genionics and WuXi Apptec (Shanghai) respectively.
# Manual patch clamp experimental program is as follows:
# (1) Preparation of solutions and compounds: The whole cell patch clamp technique was used to record hNav1.7 and hNav1.5 currents. In the experiment, the composition of extracellular fluid (mM): HEPES: 5, NaCl: 40, KCl: CaCl2:1, MgCl2:1, CdCl2:0.1, TEA-Cl: 20. The pH was adjusted to 7.3 with NaOH and the osmotic pressure was adjusted to 310-320 mOsm with sucrose, filtered and stored at 4° C. The composition of the intracellular fluid (mM): HEPES: 10, NaCl: 10, CsOH: 5, CsF: 140, EGTA: 1. The pH was adjusted to 7.3 with CsOH and the osmotic pressure was adjusted to 280-290 mOsm with sucrose, filtered and stored at −20° C.
# The positive control and the test compound were firstly dissolved in 100% DMSO (Sigma-Aldrich, D2650), configured as stock solution at a concentration (100 nM, 1000 nM).) The above stock solution was serially diluted with DMSO prior to the experiment, the solution was further diluted with extracellular solution to obtain the desired concentration of the test solution.
# (2) Manual Patch Clamp Experiment: The cell suspension was added to a 35 mm petri dish and placed on an inverted microscope stage, the cells were perfused with an extracellular fluid and the flow rate was 1-2 mL/min after cell adherence. The glass microelectrode was pulled in two steps by a microelectrode puller with an inlet water resistance of 2-5 MΩ. A/D-D/A digital-analog conversion was performed by Digidata 1440 (Molecular Devices) and pCLAMP software (version 10.2, Molecular Devices) for stimulation and signal acquisition; the signal was amplified by patch clamp amplifier (Multiclamp 700B, Molecular Devices), filtering is 4 KHz.
# Two different voltage stimulation procedures were used in the hNav1.7 and hNav1.5 manual patch clamp experiments.
# One is the inactivation stimulation program, the clamp potential is set at V1/2 of the corresponding channel, ie about 50% of the channels are inactivated, then the voltage is applied to −120 mV for 50 ms, then depolarized to −10 mV for 20 ms leading to sodium current, and finally back to the clamp potential. This stimulation program can also be called channel state-dependent voltage stimulation program.
# The other is the non-inactivation stimulation program, the clamp potential is maintained at −120 mV, voltage stimulation is given to −10 mV for 20 ms leading to sodium current, and finally back to the clamp potential. That is all channels have not experienced inactivation status, but activate directly from the resting state under the conditions of the stimulation program.
# The time intervals of these two voltage stimulation program were 10 s. The inhibitory effect of the compound was calculated by the change of the current before and after dosing, the IC50 value was fitted by the Hill equation. […] The results are shown in Table 33 and Table 34, respectively.
# [1] = Metabolism stability test in liver microsomes; format: in vitro ADME; conditions: human liver microsomes
# Experimental: Buffer A: 1 L solution of 100 mM potassium dihydrogen phosphate containing 1 mM EDTA (Sigma, V900157-100G) was prepared.
# Buffer B: 1 L solution of 100 mM dipotassium hydrogen phosphate containing 1 mM EDTA was prepared.
# Buffer C: 700 mL of buffer B was taken out and titrated with buffer A to pH 7.4.
# 2.1 10 μl of 10 mM compound to be tested and 10 μl of 10 mM ketanserin were taken out and 190 μl of pure acetonitrile was added to each of them to prepare 500 μM compound to be tested and ketanserin, respectively.
# 2.2 20 μl (20 mg/mL) of liver microsomes (Corning Lot. NO. 4133007) stock solution was added to 513.4 μl of buffer C on wet ice. 0.75 mg/mL liver microsomal solution was obtained.
# 2.3 1.5 μl of each of the above-mentioned compound to be tested and ketanserin solution was added to 498.5 μl of liver microsomal solution (0.7 5 mg/mL) respectively on wet ice. 1.5 μM mixed solution of compound to be tested and 1.5 μM mixed solution of ketanserin were obtained.
# 2.4 At the time points 0, 5, 15, 30, 45, and 60 min, 30 μl of the mixed solution of compound to be tested and 30 μl of the mixed solution of ketanserin were dispensed into the reaction plate on wet ice, respectively.
# 2.5 5 mg reduced coenzyme II (Roche, 10621706001) was weighed and dissolved in 1 mL of buffer C. 6 mM reduced coenzyme II solution was obtained. The reduced coenzyme II solution was dispensed into the reaction plate.
# 2.6 Imipramine was dissolved to give a 10 mM solution. 10 μl imipramine solution was added to 100 mL of blank acetonitrile to generate the internal reference.
# 2.7 At 0 min, 135 μL of iced acetonitrile (Merck (Lot. 1778229518)) containing the internal reference was added to each well and then 15 μL of buffer C was added.
# 2.8 The reaction plate was placed into a 37° C. water bath incubator for 5 min. In the reaction plate, 15 μL of reduced coenzyme II solution was added to each well to initiate the reaction, and the time keeping was started. At the time points of 5, 15, 30, 45, and 60 min, 135 μL of iced acetonitrile containing the internal reference was added to each well to terminate the reaction.
# 2.9 The reaction plate was sealed with an aluminum film, placed on a vibration mixer and shaken at 500 rpm for 5 min. The plate was then centrifuged in a centrifuge at 3750 rp for 15 min.
# 2.10 The sample was diluted with pure water in accordance with the ratio of 1:1 and detected by LC/MS. […]
# Wherein, the K value and the proportional factor were calculated by those skilled in the art according to the methods described in the prior art and contained in the instructions of the liver microsome product.
# hNav1.7, sequence (Q15858 whole entry): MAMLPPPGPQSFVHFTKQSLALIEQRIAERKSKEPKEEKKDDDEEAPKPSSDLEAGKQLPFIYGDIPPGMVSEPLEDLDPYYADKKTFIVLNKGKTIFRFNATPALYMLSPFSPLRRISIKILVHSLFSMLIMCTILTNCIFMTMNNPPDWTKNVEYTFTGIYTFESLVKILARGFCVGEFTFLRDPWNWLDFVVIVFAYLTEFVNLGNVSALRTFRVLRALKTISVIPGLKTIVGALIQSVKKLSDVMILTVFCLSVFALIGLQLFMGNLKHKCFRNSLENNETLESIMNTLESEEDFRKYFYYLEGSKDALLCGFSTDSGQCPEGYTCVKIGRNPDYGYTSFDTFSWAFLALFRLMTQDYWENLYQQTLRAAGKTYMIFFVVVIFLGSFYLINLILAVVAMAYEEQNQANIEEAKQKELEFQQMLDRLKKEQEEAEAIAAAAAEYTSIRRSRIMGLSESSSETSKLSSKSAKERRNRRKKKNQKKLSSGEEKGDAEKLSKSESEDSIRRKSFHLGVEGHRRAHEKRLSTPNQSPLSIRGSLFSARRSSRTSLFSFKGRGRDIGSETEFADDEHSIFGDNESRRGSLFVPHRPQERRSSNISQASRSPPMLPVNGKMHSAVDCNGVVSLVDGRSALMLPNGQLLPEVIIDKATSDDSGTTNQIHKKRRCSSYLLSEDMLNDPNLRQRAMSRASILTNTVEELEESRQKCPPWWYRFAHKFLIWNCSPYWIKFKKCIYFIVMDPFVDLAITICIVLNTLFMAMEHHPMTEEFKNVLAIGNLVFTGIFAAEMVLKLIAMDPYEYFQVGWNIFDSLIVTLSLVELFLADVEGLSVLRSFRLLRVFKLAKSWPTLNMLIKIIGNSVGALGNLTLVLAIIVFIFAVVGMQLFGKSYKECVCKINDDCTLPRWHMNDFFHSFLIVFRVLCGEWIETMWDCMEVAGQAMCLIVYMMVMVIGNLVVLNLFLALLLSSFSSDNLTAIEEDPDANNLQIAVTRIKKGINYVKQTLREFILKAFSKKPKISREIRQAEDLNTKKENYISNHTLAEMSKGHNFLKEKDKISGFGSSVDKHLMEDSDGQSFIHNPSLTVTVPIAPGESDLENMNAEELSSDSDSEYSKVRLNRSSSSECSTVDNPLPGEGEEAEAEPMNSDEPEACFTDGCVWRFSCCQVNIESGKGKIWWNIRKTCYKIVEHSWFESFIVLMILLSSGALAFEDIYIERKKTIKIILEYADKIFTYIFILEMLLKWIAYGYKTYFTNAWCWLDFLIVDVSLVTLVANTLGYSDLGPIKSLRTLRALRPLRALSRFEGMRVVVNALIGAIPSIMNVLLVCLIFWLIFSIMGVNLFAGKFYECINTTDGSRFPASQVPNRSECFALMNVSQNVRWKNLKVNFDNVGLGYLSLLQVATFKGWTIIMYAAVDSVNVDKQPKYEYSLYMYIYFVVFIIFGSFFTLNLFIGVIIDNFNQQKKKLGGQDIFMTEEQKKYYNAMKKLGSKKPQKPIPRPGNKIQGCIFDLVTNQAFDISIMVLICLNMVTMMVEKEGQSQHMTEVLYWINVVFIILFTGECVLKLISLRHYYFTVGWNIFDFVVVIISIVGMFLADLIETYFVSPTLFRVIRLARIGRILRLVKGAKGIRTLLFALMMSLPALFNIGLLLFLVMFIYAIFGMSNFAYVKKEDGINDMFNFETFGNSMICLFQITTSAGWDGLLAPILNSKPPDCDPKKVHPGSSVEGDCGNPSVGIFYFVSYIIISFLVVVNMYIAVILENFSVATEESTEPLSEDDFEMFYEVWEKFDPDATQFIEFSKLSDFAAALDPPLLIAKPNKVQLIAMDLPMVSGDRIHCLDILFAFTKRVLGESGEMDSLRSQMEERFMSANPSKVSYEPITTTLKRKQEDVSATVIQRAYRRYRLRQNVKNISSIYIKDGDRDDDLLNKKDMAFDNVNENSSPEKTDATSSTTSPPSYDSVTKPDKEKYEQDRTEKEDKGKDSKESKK
compound,measurement,setting,value
"Cc1cc(N2CCN(Cc3cc(F)c(C(=O)NS(=O)(=O)C4CC4)cc3Cl)CC2)ccc1Cl [the free base of formula X compound, 5-chloro-4-((4-(4-chloro-3-methylphenyl)piperazin-1-yl)methyl)-N-(cyclopropylsulfonyl)-2-fluorobenzamide]",inhibitory activity against Nav1.7,hNav1.7,higher inhibitory activity
same,inhibition at 0.1 µM,"hNav1.7; read-out: Inhibition of Nav1.7, 100 nM(%)",86.9%
same,inhibition at 1 µM,"hNav1.7; read-out: Inhibition of Nav1.7, 1000 nM(%)",97.7%
same,Clearance ratio,[1],20.12 mL/min/kg
same,metabolic stability,[1],good metabolic stability
